Assay results as given in patent US20260217701A1, “SELECTIVE BET INHIBITORS AND USES THEREOF” (Tay Therapeutics Limited, priority 2022, published 2026).
Like-named read-outs stand apart in the source and are kept apart here.

Test: Dog PK study #3 (Compound A PO once daily 5 days, 5/10/20 mg/kg; PK, body weight, hematology)
Type: in vivo, beagle dogs
Conditions: for Tmax / AUC(0-inf) / Cmax / MRT inf / MRT last / half-life / AUC(0-t): male, beagle, dog, plasma, po; for AUC(0-inf): read-out: AUC0-inf; for Cmax: read-out: Cmax; for MRT inf: read-out: MRT0-inf; for MRT last: read-out: MRT0-last; for half-life: read-out: T½ (converted)
Description: For the third dog pharmacokinetic study, three solutions of different concentrations of Compound A were prepared in 5% DMSO/15% PEG-400/80% (10% VE-TPGS) as outlined in Table 2E. The Compound A solutions were administered to animals orally (PO) once daily over a five-day period. Body weight was recorded prior to dosing, and detailed clinical observations were made prior to dosing and throughout the study, as needed.
Animals were divided into Day 1 and Day 5 sample collection groups, with animals in the Day 1 collection group having blood samples taken prior to dosing and at 0.25, 0.5, 1, 2, 4, 8, and 24 hours after dosing on day 1. Animals in the Day 5 collection group having blood samples taken prior to dosing and at 0.25, 0.5, 1, 2, 4, 8, and 24 hours after dosing on day 5. Study groups are outlined in Table 3D.
Blood samples (~0.3 mL) were collected on day according to the following schedule (0.25, 0.5, 1, 2, 4, 8, and 24 h) after day 5 administration of Compound A by venipuncture of peripheral veins except for the dosing vein, and EDTA-K2 was used as anticoagulant. Within 30 minutes of collection, the samples were centrifuged at approximately 2000 times g-force for 10 minutes at 4° C. to obtain blood plasma. The plasma samples were immediately divided into two aliquots (~75 μL each), transferred to a cryogenic vial, and stored in a freezer at −75±15° C. prior to analysis.
The concentration of Compound A in the blood plasma was determined through LC-MS as previously described. Briefly, the experiments were conducted on a DMPK-LCMS-14-SMBA Triple Quad 6500 Plus instrument with an ACQUITY UPLC BEH C18 1.7 μm (50×2.1 mm) column. The matrix was male beagle dog plasma potassium (K2) EDTA A gradient of 95% water (0.1% formic acid and 2 mM HCOONH4)/95% acetonitrile (0.1% formic acid and 2 mM HCOONH4) was used as the mobile phase. The sample flow rate was 0.6 mL/min.
The samples were then vortex-mixed for 10 minutes at 800 rpm and centrifuged for 15 minutes at 3220×g at 4° C. 50 μL aliquots of supernatant were transferred to a clean 96-well plate and centrifuged for 5 minutes at 3220×g at 4° C. Samples were then injected into the LC/MS/MS system for quantitative analysis.
The gathered data were used for pharmacokinetic calculations using T1/2, CO, AUClast, AUCinf, MRTinf, Cl, Vss, and Number of Points for Regression as parameters.
The cell composition (hematology) of blood samples was analyzed at day 5. Analyses identified the total number of white blood cells, neutrophils, lymphocytes, monocytes, eosinophils, basophils, and platelets in collected samples.

[1] = 5 mg/kg, Day 1, 5 mg/kg dose PO, individual animals
[2] = 5 mg/kg, Day 1, 5 mg/kg dose PO, mean
[3] = 5 mg/kg, Day 5, 5 mg/kg dose PO, individual animals
[4] = 5 mg/kg, Day 5, 5 mg/kg dose PO, mean
[5] = 10 mg/kg, Day 1, 10 mg/kg dose PO, individual animals
[6] = 10 mg/kg, Day 1, 10 mg/kg dose PO, mean
[7] = 10 mg/kg, Day 5, 10 mg/kg dose PO, individual animals
[8] = 10 mg/kg, Day 5, 10 mg/kg dose PO, mean
[9] = 20 mg/kg, Day 1, 20 mg/kg dose PO, individual animals
[10] = 20 mg/kg, Day 1, 20 mg/kg dose PO, mean
[11] = 20 mg/kg, Day 5, 20 mg/kg dose PO, individual animals
[12] = 20 mg/kg, Day 5, 20 mg/kg dose PO, mean
[13] = single PO administration Day 1, 10.0 over 5.00 mg/kg, dose ratio 2.00
[14] = single PO administration Day 1, 20.0 over 5.00 mg/kg, dose ratio 4.00
[15] = single PO administration Day 1, 20.0 over 10.0 mg/kg, dose ratio 2.00

Q: With `Cn1cc(-c2ccccc2)c(-c2cn(C)c(=O)c3[nH]c(-c4cnn(C(F)(F)F)c4)cc23)cc1=O` [Compound A, 6-methyl-4-(1-methyl-2-oxo-5-phenyl-1,2-dihydropyridin-4-yl)-2-(1-(trifluoromethyl)-1H-pyrazol-4-yl)-1,6-dihydro-7H-pyrrolo[2,3-c]pyridin-7-one] as the molecule, how does the Tmax [1] read?
A: Its Tmax is 8 h.

Q: What about the AUC(0-inf) [1] of the same molecule?
A: The AUC(0-inf) was 7.88 µg·h/mL.

Q: What about the Cmax [1] of the same molecule?
A: The Cmax was 785 ng/mL.

Q: And the MRT inf [1]?
A: The MRT inf was 9.3 h.

Q: And the MRT last [1]?
A: The MRT last was 9.77 h.

Q: And the half-life [1]?
A: Its half-life is 5.63 h.

Q: What about the AUC(0-t) [2] of the same molecule?
A: The AUC(0-t) was 9.5 µg·h/mL.

Q: What about the Tmax [2] of the same molecule?
A: Its Tmax is 6 h.

Q: What about the Cmax [2] of the same molecule?
A: Its Cmax is 736 ng/mL.

Q: And the MRT last [2]?
A: Its MRT last is 8.8 h.

Q: What about the AUC(0-t) [3] of the same molecule?
A: Its AUC(0-t) is 17.8 µg·h/mL.

Q: And the Tmax [3]?
A: Its Tmax is 2 h.

Q: What about the Cmax [3] of the same molecule?
A: Its Cmax is 1270 ng/mL.

Q: And the MRT inf [3]?
A: The MRT inf was 20 h.

Q: What about the MRT last [3] of the same molecule?
A: The MRT last was 9.78 h.

Q: What about the AUC(0-t) [4] of the same molecule?
A: Its AUC(0-t) is 14.5 µg·h/mL.

Q: What about the Tmax [4] of the same molecule?
A: The Tmax was 2 h.

Q: What about the AUC(0-inf) [4] of the same molecule?
A: Its AUC(0-inf) is 18.9 µg·h/mL.

Q: What about the Cmax [4] of the same molecule?
A: Its Cmax is 1160 ng/mL.

Q: And the MRT inf [4]?
A: The MRT inf was 15.1 h.

Q: What about the MRT last [4] of the same molecule?
A: Its MRT last is 8.93 h.

Q: What about the half-life [4] of the same molecule?
A: Its half-life is 9.96 h.

Q: What about the AUC(0-t) [5] of the same molecule?
A: Its AUC(0-t) is 19.5 µg·h/mL.

Q: And the Tmax [5]?
A: The Tmax was 4 h.

Q: What about the AUC(0-inf) [5] of the same molecule?
A: The AUC(0-inf) was 20.5 µg·h/mL.

Q: What about the Cmax [5] of the same molecule?
A: Its Cmax is 2010 ng/mL.

Q: And the MRT inf [5]?
A: The MRT inf was 8.8 h.

Q: What about the MRT last [5] of the same molecule?
A: Its MRT last is 7.59 h.

Q: What about the half-life [5] of the same molecule?
A: Its half-life is 5.24 h.

Q: And the AUC(0-t) [6]?
A: Its AUC(0-t) is 17.5 µg·h/mL.

Q: What about the Tmax [6] of the same molecule?
A: The Tmax was 3 h.

Q: What about the AUC(0-inf) [6] of the same molecule?
A: The AUC(0-inf) was 18.6 µg·h/mL.

Q: What about the Cmax [6] of the same molecule?
A: Its Cmax is 1730 ng/mL.

Q: And the MRT inf [6]?
A: Its MRT inf is 9.17 h.

Q: And the MRT last [6]?
A: The MRT last was 7.72 h.

Q: What about the half-life [6] of the same molecule?
A: Its half-life is 5.6 h.

Q: And the AUC(0-t) [7]?
A: The AUC(0-t) was 20.5 µg·h/mL.

Q: And the Tmax [7]?
A: Its Tmax is 2 h.

Q: What about the AUC(0-inf) [7] of the same molecule?
A: Its AUC(0-inf) is 23 µg·h/mL.

Q: And the Cmax [7]?
A: Its Cmax is 1740 ng/mL.

Q: And the MRT inf [7]?
A: Its MRT inf is 11.3 h.

Q: What about the MRT last [7] of the same molecule?
A: The MRT last was 8.5 h.

Q: What about the half-life [7] of the same molecule?
A: The half-life was 7.3 h.

Q: What about the AUC(0-t) [8] of the same molecule?
A: The AUC(0-t) was 28.3 µg·h/mL.

Q: And the Tmax [8]?
A: Its Tmax is 2 h.

Q: And the AUC(0-inf) [8]?
A: Its AUC(0-inf) is 34.1 µg·h/mL.

Q: And the Cmax [8]?
A: Its Cmax is 2260 ng/mL.

Q: What about the MRT inf [8] of the same molecule?
A: The MRT inf was 13.4 h.

Q: What about the MRT last [8] of the same molecule?
A: Its MRT last is 8.95 h.

Q: And the half-life [8]?
A: The half-life was 8.8 h.

Q: What about the AUC(0-t) [9] of the same molecule?
A: The AUC(0-t) was 49.4 µg·h/mL.

Q: What about the Tmax [9] of the same molecule?
A: Its Tmax is 4 h.

Q: And the Cmax [9]?
A: Its Cmax is 4330 ng/mL.

Q: And the MRT inf [9]?
A: The MRT inf was 9.65 h.

Q: And the MRT last [9]?
A: Its MRT last is 8.19 h.

Q: What about the AUC(0-t) [10] of the same molecule?
A: Its AUC(0-t) is 67.9 µg·h/mL.

Q: And the Tmax [10]?
A: The Tmax was 4 h.

Q: What about the AUC(0-inf) [10] of the same molecule?
A: Its AUC(0-inf) is 84.7 µg·h/mL.

Q: What about the Cmax [10] of the same molecule?
A: The Cmax was 5160 ng/mL.

Q: And the MRT inf [10]?
A: Its MRT inf is 13.9 h.

Q: What about the MRT last [10] of the same molecule?
A: Its MRT last is 9.15 h.

Q: What about the half-life [10] of the same molecule?
A: Its half-life is 8.67 h.

Q: What about the Tmax [11] of the same molecule?
A: The Tmax was 2 h.

Q: What about the Cmax [11] of the same molecule?
A: The Cmax was 3510 ng/mL.

Q: What about the AUC(0-t) [12] of the same molecule?
A: The AUC(0-t) was 30.2 µg·h/mL.

Q: And the Tmax [12]?
A: The Tmax was 2 h.

Q: And the AUC(0-inf) [12]?
A: Its AUC(0-inf) is 1070 µg·h/mL.

Q: And the Cmax [12]?
A: Its Cmax is 2860 ng/mL.

Q: And the MRT inf [12]?
A: The MRT inf was 483 h.

Q: What about the MRT last [12] of the same molecule?
A: The MRT last was 6.3 h.

Q: And the half-life [12]?
A: The half-life was 334 h.

Q: And the mortality (one animal of the highest dose, 5 day PO study)?
A: The mortality was “found dead on day 6”.

Q: And the “AUC0-last Ratio (dose proportionality)” value [13]?
A: Its value is 1.85.

Q: And the “Cmax Ratio (dose proportionality)” value [13]?
A: The value was 2.35.

Q: And the “AUC0-last Ratio (dose proportionality)” value [14]?
A: The value was 7.15.

Q: What about the “Cmax Ratio (dose proportionality)” value [14] of the same molecule?
A: Its value is 7.02.

Q: And the “AUC0-last Ratio (dose proportionality)” value [15]?
A: The value was 3.87.

Q: What about the “Cmax Ratio (dose proportionality)” value [15] of the same molecule?
A: Its value is 2.99.
